Literature values as cited in patent US20030224036A1, “Hla class I a2 tumor associated antigen peptides and vaccine compositions” (priority 1999, published 2003).

Test system: PBMC of cervical cancer patients

In the case of “aKXVAAWTLKAAa-NH2 [PADRE, a=D-alanine, X=cyclohexylalanine]”, the responding patients (95% interval 10-65%) is listed as 33% and the safety in patients (recurrent or residual cervical carcinoma) is listed as “favorable safety profile”.
